Data set [1] concerns HT-1080 fibrosarcoma cells. The data set can be described thus: Telomere length (mean TRF length) assay. The class given is cell-based, human. The conditions noted are these: HT-1080 cells, 40 μM, 4 days. On the procedure: Cells were treated as described in FIG. 13a. Lanes 1, 2, 3 contain genomic DNA from cells treated with diluent (D), T-oligo (T), or complementary oligo (C). Lanes 4 and 5 contain high (H) molecular and low (L) molecular weight standard telomeric DNA.
HT-1080 fibrosarcoma cells were treated with diluent, 40 μM T-oligo or 40 μM complementary oligo for 4 days and then the genomic DNA was isolated using the DNeasy Tissue Kit (Qiagen, Valencia, Calif.). Telomere length was determined using the Telo TTAGGG Telomere Length Assay (Roche Molecular Biochemicals, Indianapolis, Ind.) following the protocol supplied by the manufacturer. […] Terminal restriction fragments (TRF) were detected by chemiluminescence. The mean TRF length was calculated by scanning the exposed X-ray film with a densitometer and calculated as previously described (Harley et al. [1990] Telomeres shorten during ageing of human fibroblasts. Nature 345, 458-460).
To determine the affect of T-oligos on the mean telomere length (MTL) in HT-1080 cells, cells were analyzed after treatment with T-oligo for 4 days which corresponded to the time that the senescent phenotype was readily observed. […] The less than 100 bp difference in calculated MTL is within the range of experimental variation and is not significant.

The test system of data set [2] is R2F (p53DD/cdk4^R24C) fibroblasts. As to the kind of experiment: SA-β-Gal staining, p53DD/cdk4^R24C R2F fibroblasts. It counts as cell-based, human. The conditions noted are these: R2F fibroblasts expressing both p53DD and cdk4^R24C, 40 μM, 1 week. The method, then: FIG. 12a: Immunoblot analysis of p53DD and cdk4^R24C expression. Cells were collected for protein analysis by western blot using 30 μg total protein and probed for total p53 and cdk4. Lanes 1, 2, 3 and 4 contain protein samples from R2F, R2F (p53DD), R2F (cdk4^R24C) and R2F (p53DD/cdk4^R24C) fibroblasts, respective. β-actin was used as a loading control. FIG. 12b: Contribution of p53 and pRb pathways to T-oligo-induced SA-β-Gal activity. R2F fibroblasts and derived transductants were treated with diluent or 40 μM T-oligo for one week and then assayed for SA-β-Gal activity. FIG. 12c: Quantitative analysis of SA-β-Gal positive cells. Cells expressing SA-β-Gal activity were counted and presented as percentage of total cells in the cultures. Averages and standard deviations were calculated from 3 representative fields from each of 3 independent experiments.
R2F newborn dermal fibroblasts and derived p53DD, […] and p53DD/cdk4^R24C transductants (a generous gift from Dr. James G. Rheinwald of Harvard Medical School) lack a functional p53 pathway, pRb pathway, and both pathways respectively.
Cells were treated once with diluent alone, 40 μM T-oligo or 40 μM complementary oligo for 1 week without re-feeding. […]
Cells were treated with either diluent or 40 μM T-oligo for 1 week and then assessed for SA-β-Gal activity. […]

Data set [3] deals with p53 phosphoserine 37. The data set can be described thus: Western blot for p53 phosphoserine 37. The class given is cell-based. The conditions noted are these: normal neonatal fibroblasts, 40 μM. On the procedure:
Western blot analysis was performed on normal neonatal cells using a antibody specific for p53 phosphoserine 37 after being treated with either diluent or 40 μM for the indicated times.
Normal neonatal fibroblasts were treated with either diluent or 40 μM (11mer-1) for 4, 6, 8, 19, 24 and 48 hours and then collected for Western blot analysis using an antibody specific for p53 phosphoserine 37. Sham and IR-irradiated (10 Gy) fibroblasts were used used as negative and positive controls, respectively.

Data set [4] relates to p95/Nbs1 phosphorylation. The data set can be described thus: Western blot for phospho-p95/Nbs1 in Saos-2 cells. It counts as cell-based. The conditions noted are these: 40 μM. The method, then:
FIG. 18a: FACS profiles from one representative experiment of three with the percentage and standard deviations of cells in each phase of the cell cycle was calculated from triplicate cultures of each condition. FIG. 18b: Western blots with an antibody specific for phospho-p95/Nbs1. Lanes 1, 2 and 3 contained protein from cells treated with diluent, 11mer-1 or 11mer-2, respectively. Control cells (3 hours) were irradiated with 10 Gy of IR (+), or were sham irradiated (−).
Saos-2 cells are an osteosarcoma cell line that is reportedly telomerase negative and maintain telomeres by the ALT pathway. Saos-2 cell lines were treated with either diluent or 40 μM of the indicated oligonucleotide and cells were collected after 48 hours for FACS analysis. […] The results that the effect of the T-oligo in the telomerase negative cells is identical to the response in telomerase positive malignant cell lines.
For orientation: In western blotting, separated proteins are transferred to a membrane and probed.

{P} = phosphate

As to “pGTTAGGGTTAG (DNA, 5' {P}, backbone not given here; listed as Homo sapiens) [Oligonucleotide 11mer-1]”, the “mean telomere length (MTL)” value in data set [1] turned out to be 5.56 kb. Further, the SA-β-Gal positive cells in data set [2] was 7±1%. The “p53 serine 37 phosphorylation (band intensity vs diluent)” value in data set [3] (8 hours) was “detected”; in data set [3] (48 hours), “very prominent”. Besides, in data set [4], the “phosphorylation of p95/Nbs1” value is recorded as “induced phosphorylation”.

The record behind these values is US20060269924A1, “Modulation of telomere-initiated cell signaling” (TRUSTEES OF BOSTON UNIVERSITY, priority 2003, published 2006).
